Reference: publication PMC7722985 (Biochemistry, 2015)

Experiments:
p300 Taz2 = settings: cited from earlier work
[1] = test system: Taz2 domain of p300 (A1723-K1812/C1738A, C1746A, C1789A, C1790A); experiment: ITC binding of p53; settings: for Ka: ITC, 20 mM Tris-HCl (pH 7.2), 100 mM NaCl, 2 mM β-mercaptoethanol, 35 °C, 1:1 binding model, performed at least twice, ND = No binding was detected
CBP Taz2 = settings: α1, α2, α3 surface of Taz2; cited from earlier work
Taz2 domain of p300 [2] = experiment: pH dependence of p53 binding to Taz2 by ITC; settings: between pH 5.9 and 6.8; ITC at 35 °C; 100 mM Tris, 100 mM Bis-Tris, 100 mM acetate
Taz2 R1731A = experiment: ITC binding of p53; settings: ITC at 35 °C
Taz2 S1741D = experiment: ITC binding of p53; settings: ITC at 35 °C
Taz2 domain of p300 [3] = experiment: Salt dependence of p53; type: binding; settings: ITC at 35 °C; similar pH values; 100 mM acetate as opposed to 100 mM NaCl
[4] = ITC at 35 °C, pH 7.2, 100 mM NaCl

For “W53A/F54A double mutation of p53(25–65): W53A/F54A double mutation of p53(25–65)”, the “Taz2 binding of double mutant” value (p300 Taz2) is listed as “abrogated Taz2 binding”.
With “p53 D48N: p53(35–59) with mutation of Asp48 to asparagine” the Ka [1] was “(0.60 ± 0.08) × 10^6 M^−1”.
With “p53 E51Q: p53(35–59) with mutation of Glu51 to glutamine” the Ka [1] was “(0.56 ± 0.13) × 10^6 M^−1”.
With “p53 F54S: p53(35–59) with mutation of Phe54 to serine” the “reduction in the association constant compared with wild-type p53 peptide” value [1, 4] was 55% and the Ka [1] was “(0.53 ± 0.09) × 10^6 M^−1”.
With “p53 I50A: p53(35–59) mutant peptide I50A” the “weaker binding to Taz2 than wild-type” value [1, 4] was 3 fold and the Ka [1] was “(0.31 ± 0.01) × 10^6 M^−1”.
For “p53 L45A: p53(35–59) mutant peptide L45A”, the Ka [1] was “(0.91 ± 0.04) × 10^6 M^−1”.
With “p53 M40A: p53(35–59) mutant peptide M40A” the Ka [1] was “(1.32 ± 0.05) × 10^6 M^−1”.
With “p53 Q52E: p53(35–59) mutant peptide Q52E” the Ka [1] was “(1.29 ± 0.35) × 10^6 M^−1”.
In the case of “p53 T55A: p53(35–59) mutant peptide T55A”, the Ka [1] is reported as “(1.16 ± 0.10) × 10^6 M^−1”.
For “p53 TAD1: first transactivation subdomain of p53 (residues 1–39)”, the “binding to CBP Taz2” value (CBP Taz2) is listed as “high affinity” and the “effect of phosphorylation on Taz2 binding” value (shortened to “effect of phosphorylation”) (p300 Taz2) is listed as “increased its affinity for p300 Taz2”.
For “p53 TAD2: second transactivation subdomain of p53 (residues 40–61)”, the “binding to CBP Taz2” value (CBP Taz2) is given as “high affinity”, the “effect of phosphorylation” value (p300 Taz2) is given as “unaffected by phosphorylation” and the “affinity for Taz2” value (p300 Taz2; p53 TAD2 compared with p53 TAD1) is given as “tighter than that of p53 TAD1”.
In the case of “p53 W53Q: p53(35–59) with Trp53 mutated to glutamine (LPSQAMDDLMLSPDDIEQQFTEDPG)”, the “detectable binding to Taz2” value ([1]; ITC at 35 °C) is reported as “loss of detectable binding”.
For “p53 pThr55: p53(35–59) phosphorylated at Thr55”, the Ka [1] was “(1.30 ± 0.05) × 10^6 M^−1”.
For “p53(1–39): p53 TAD1, residues 1–39 [reference compound]”, the “pH dependence of affinity for Taz2, pH 5.9 to 6.8” value (Taz2 domain of p300 [2]) was “not dependent upon pH between pH 5.9 and 6.8”.
In the case of “p53(1–57): p53(1–57), both TAD subdomains”, the “overall affinity for Taz2 relative to single subdomains” value (p300 Taz2) is listed as “overall affinity higher than that of either interaction alone”.
In the case of “p53(35–59): p53 TAD2 peptide, residues 35–59, synthesized by solid-phase method or expressed as GST fusion”, the “reduction in binding affinity vs wild-type Taz2” value (Taz2 R1731A) is reported as 3 fold, the “effect of Taz2 mutation on binding” value (Taz2 S1741D) is reported as “did not affect binding” and the “affinity in 100 mM acetate vs 100 mM NaCl” value (Taz2 domain of p300 [3]) is reported as “significantly higher”. For the same substance, the “effect of phosphorylation” value (p300 Taz2) was “does not significantly affect binding”.
